Data: patent US6376497B1, “Antifungal azole derivatives having a fluorinated vinyl group and process for preparing same” (Korea Research Institute of Chemical Technology, priority 1999, dated 2002)
In brackets after ≈: the same amount, converted by molar mass.

Experiments:
Experiment in all cases: In vitro antifungal activity, microbroth dilution MIC
Format in all cases: cell-based
[1] = tested on: Aspergillus furnigatus B. 19119; settings: 4 to 48 hours; for Minimal inhibitory concentration (MIC): A furnigatus B. 19119, RPMI-1640, 35° C.; for Minimal inhibitory concentration(MIC), A furnigatus B. 19119: RPMI-1640, 35° C., no growth observed
Procedure, shortened: (§1)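 Broth microdilution adapted from NCCLS M27, in RPMI-1640 with 0.165 M MOPS, pH 7.0. Yeast or mould inoculum at 2×10^3 CFU/ml was mixed 1:1 with DMSO-derived compound solutions (200 to 0.10 μg/ml before mixing) and incubated at 35 °C for 4 to 48 h. MIC was the concentration showing no growth.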

[2] = tested on: Aspergillus niger A. 16404; settings: 4 to 48 hours; for Minimal inhibitory concentration (MIC): A. niger A. 16404, RPMI-1640, 35° C.; for Minimal inhibitory concentration(MIC), A. niger A. 16404: RPMI-1640, 35° C., no growth observed
Procedure, shortened: as §1

[3] = tested on: Candida albicans A. 10231; settings: 4 to 48 hours; for Minimal inhibitory concentration (MIC): C. albicans A. 10231, RPMI-1640, 35° C.
Procedure, shortened: as §1

Candida albicans C1-2 = settings: 4 to 48 hours; for Minimal inhibitory concentration (MIC): C. albicans C1-2, RPMI-1640, 35° C.
Procedure, shortened: as §1

[4] = tested on: Candida albicans IFO. 1385; settings: 4 to 48 hours; for Minimal inhibitory concentration (MIC): C. albicans IFO. 1385, RPMI-1640, 35° C.; for Minimal inhibitory concentration(MIC), C. albicans IFO. 1385: RPMI-1640, 35° C., no growth observed
Procedure, shortened: as §1

Candida krusei K. 11655 = settings: 4 to 48 hours; for Minimal inhibitory concentration (MIC): C. krusei K. 11655, RPMI-1640, 35° C.; for Minimal inhibitory concentration(MIC), C. krusei K. 11655: RPMI-1640, 35° C., no growth observed
Procedure, shortened: as §1

[5] = tested on: Candida parapsitosis A. 7330; settings: 4 to 48 hours; for Minimal inhibitory concentration (MIC): C. parapsitosis A. 7330, RPMI-1640, 35° C.; for Minimal inhibitory concentration(MIC), C. parapsitosis A. 7330: RPMI-1640, 35° C., no growth observed
Procedure, shortened: as §1

[6] = tested on: Candida pseudotropicalis K. 11658; settings: 4 to 48 hours; for Minimal inhibitory concentration (MIC): C. pseudotropicalis K. 11658, RPMI-1640, 35° C.; for Minimal inhibitory concentration(MIC), C. pseudotropicalis K. 11658: RPMI-1640, 35° C., no growth observed
Procedure, shortened: as §1

[7] = tested on: Candida tropicalis A. 13803; settings: 4 to 48 hours; for Minimal inhibitory concentration (MIC): C. tropicalis A. 13803, RPMI-1640, 35° C.; for Minimal inhibitory concentration(MIC), C. tropicalis A. 13803: RPMI-1640, 35° C., no growth observed
Procedure, shortened: as §1

[8] = tested on: Cryptococcus neoformans A. 34144; settings: 4 to 48 hours; for Minimal inhibitory concentration (MIC): Cry. neoformans A. 34144, RPMI-1640, 35° C.; for Minimal inhibitory concentration(MIC), Cry. neoformans A. 34144: RPMI-1640, 35° C., no growth observed
Procedure, shortened: as §1

[9] = tested on: Cryptococcus neoformans B. 42419; settings: 4 to 48 hours; for Minimal inhibitory concentration (MIC): Cry. neoformans B. 42419, RPMI-1640, 35° C.; for Minimal inhibitory concentration(MIC), Cry. neoformans B. 42419: RPMI-1640, 35° C., no growth observed
Procedure, shortened: as §1

[10] = tested on: Cryptococcus neoformans IFM. 40092; settings: 4 to 48 hours; for Minimal inhibitory concentration (MIC): Cry. neoformans IFM. 40092, RPMI-1640, 35° C.; for Minimal inhibitory concentration(MIC), Cry. neoformans IFM. 40092: RPMI-1640, 35° C., no growth observed
Procedure, shortened: as §1

[11] = tested on: Torulopsis glabrata B. 16205; settings: 4 to 48 hours; for Minimal inhibitory concentration (MIC): T. glabrata B. 16205, RPMI-1640, 35° C.; for Minimal inhibitory concentration(MIC), T. glabrata B. 16205: RPMI-1640, 35° C., no growth observed
Procedure, shortened: as §1

[12] = tested on: Trichophyton mentagrophytes A. 9129; settings: 4 to 48 hours; for Minimal inhibitory concentration (MIC): T. mentagrophytes A. 9129, RPMI-1640, 35° C.; for Minimal inhibitory concentration(MIC), T. mentagrophytes A. 9129: RPMI-1640, 35° C., no growth observed
Procedure, shortened: as §1

[13] = tested on: Trichophyton mentagrophytes B. 32663; settings: 4 to 48 hours; for Minimal inhibitory concentration (MIC): T. mentagrophytes B. 32663, RPMI-1640, 35° C.; for Minimal inhibitory concentration(MIC), T. mentagrophytes B. 32663: RPMI-1640, 35° C., no growth observed
Procedure, shortened: as §1

[14] = RPMI-1640, 35° C., no growth observed

| Compound | Minimal inhibitory concentration (MIC) [1] [µg/mL] | Minimal inhibitory concentration (MIC) [2] [µg/mL] | Minimal inhibitory concentration (MIC) [3] [µg/mL] | Minimal inhibitory concentration (MIC) (Candida albicans C1-2) [µg/mL] | Minimal inhibitory concentration (MIC) [4] | Minimal inhibitory concentration (MIC) (Candida krusei K. 11655) [µg/mL] | Minimal inhibitory concentration (MIC) [5] [µg/mL] | Minimal inhibitory concentration (MIC) [6] [µg/mL] | Minimal inhibitory concentration (MIC) [7] [µg/mL] | Minimal inhibitory concentration (MIC) [8] [µg/mL] | Minimal inhibitory concentration (MIC) [9] [µg/mL] | Minimal inhibitory concentration (MIC) [10] | Minimal inhibitory concentration (MIC) [11] [µg/mL] | Minimal inhibitory concentration (MIC) [12] [µg/mL] | Minimal inhibitory concentration (MIC) [13] | other results |
| --- | --- | --- | --- | --- | --- | --- | --- | --- | --- | --- | --- | --- | --- | --- | --- | --- |
| COc1cccc(C=C(F)OCC2COC(Cn3ccnc3)(c3ccc(F)cc3F)O2)c1 (mixture of isomers) [Ex. 43] | 12.5 | >100 | 25.0 | 25.0 | 0.78 µg/mL | 12.5 | 12.5 | 6.25 | 50.0 | 1.56 | 1.56 | 0.39 µg/mL | 6.25 | 6.25 | 1.56 µg/mL | – |
| Cc1ccc(C=C(F)OCC2COC(Cn3ccnc3)(c3ccc(F)cc3F)O2)cc1C (mixture of isomers) [Ex. 40] | 12.5 | 25.0 | 12.5 | 12.5 | 0.78 µg/mL | 25.0 | 25.0 | 25.0 | 25.0 | 1.56 | 1.56 | 0.20 µg/mL | 6.25 | 6.25 | 1.56 µg/mL | – |
| FC(=Cc1cccc(F)c1)OCC1COC(Cn2ccnc2)(c2ccc(Cl)cc2Cl)O1 (stereo not drawn) [Ex. 15] | 0.78 (≈ 1.67 µM) | 1.56 (≈ 3.34 µM) | 6.25 (≈ 13.4 µM) | 3.13 (≈ 6.7 µM) | ≦0.10 μg/ml | 6.25 (≈ 13.4 µM) | 6.26 (≈ 13.4 µM) | 3.13 (≈ 6.7 µM) | 25.0 (≈ 53.5 µM) | 0.20 (≈ 0.428 µM) | 0.20 (≈ 0.428 µM) | ≦0.10 μg/ml | 3.13 (≈ 6.7 µM) | 0.39 (≈ 0.835 µM) | ≦0.10 μg/ml | – |
| COc1cccc(C(=C(F)OCC2COC(Cn3ccnc3)(c3ccc(F)cc3F)O2)C(F)(F)F)c1 (mixture of isomers) [Ex. 60] | 12.5 | 100 | 12.5 | 12.5 | 0.78 µg/mL | >100 | >100 | 100 | 100 | 1.56 | 1.56 | 0.20 µg/mL | 6.25 | 6.25 | 3.13 µg/mL | – |
| Cc1ccc(C=C(F)OCC2COC(Cn3ccnc3)(c3ccc(Cl)cc3Cl)O2)cc1 (stereo not drawn) [Ex. 3] | 3.13 (≈ 6.76 µM) | 3.13 (≈ 6.76 µM) | 12.5 (≈ 27 µM) | 25.0 (≈ 54 µM) | 0.78 µg/mL (≈ 1.68 µM) | 6.25 (≈ 13.5 µM) | 6.25 (≈ 13.5 µM) | 6.25 (≈ 13.5 µM) | 25.0 (≈ 54 µM) | 0.39 (≈ 0.842 µM) | 3.13 (≈ 6.76 µM) | 1.56 µg/mL (≈ 3.37 µM) | 3.13 (≈ 6.76 µM) | 1.56 (≈ 3.37 µM) | 1.56 µg/mL (≈ 3.37 µM) | – |
| Cc1ccc(C(=C(F)OCC2COC(Cn3cncn3)(c3ccc(Cl)cc3Cl)O2)C(F)(F)F)cc1C (mixture of isomers) [Ex. 82] | – | – | – | – | – | – | – | – | – | – | – | – | – | – | – | Minimal inhibitory concentration(MIC), A furnigatus B. 19119 [1]: >100 µg/mL; Minimal inhibitory concentration(MIC), A. niger A. 16404 [2]: >100 µg/mL; Minimal inhibitory concentration(MIC), C. albicans A. 10231 [3, 14]: >100 µg/mL; Minimal inhibitory concentration(MIC), C. albicans C1-2 (Candida albicans C1-2; [14]): >100 µg/mL; Minimal inhibitory concentration(MIC), C. albicans IFO. 1385 [4]: 12.5 µg/mL; Minimal inhibitory concentration(MIC), C. krusei K. 11655 (Candida krusei K. 11655): >100 µg/mL; Minimal inhibitory concentration(MIC), C. parapsitosis A. 7330 [5]: >100 µg/mL; Minimal inhibitory concentration(MIC), C. pseudotropicalis K. 11658 [6]: >100 µg/mL; Minimal inhibitory concentration(MIC), C. tropicalis A. 13803 [7]: >100 µg/mL; Minimal inhibitory concentration(MIC), Cry. neoformans A. 34144 [8]: 3.13 µg/mL; Minimal inhibitory concentration(MIC), Cry. neoformans B. 42419 [9]: 3.13 µg/mL; Minimal inhibitory concentration(MIC), Cry. neoformans IFM. 40092 [10]: 0.39 µg/mL; Minimal inhibitory concentration(MIC), T. glabrata B. 16205 [11]: >100 µg/mL; Minimal inhibitory concentration(MIC), T. mentagrophytes A. 9129 [12]: >100 µg/mL; Minimal inhibitory concentration(MIC), T. mentagrophytes B. 32663 [13]: >100 µg/mL |
| Cc1cc(C)cc(C=C(F)OCC2COC(Cn3cncn3)(c3ccc(Cl)cc3Cl)O2)c1 (mixture of isomers) [Ex. 73] | – | – | 50.0 | 50.0 | – | – | – | – | – | – | – | – | – | – | – | Minimal inhibitory concentration(MIC), A furnigatus B. 19119 [1]: >100 µg/mL; Minimal inhibitory concentration(MIC), A. niger A. 16404 [2]: >100 µg/mL; Minimal inhibitory concentration(MIC), C. albicans IFO. 1385 [4]: 12.5 µg/mL; Minimal inhibitory concentration(MIC), C. krusei K. 11655 (Candida krusei K. 11655): 100 µg/mL; Minimal inhibitory concentration(MIC), C. parapsitosis A. 7330 [5]: >100 µg/mL; Minimal inhibitory concentration(MIC), C. pseudotropicalis K. 11658 [6]: 50.0 µg/mL; Minimal inhibitory concentration(MIC), C. tropicalis A. 13803 [7]: >100 µg/mL; Minimal inhibitory concentration(MIC), Cry. neoformans A. 34144 [8]: 12.5 µg/mL; Minimal inhibitory concentration(MIC), Cry. neoformans B. 42419 [9]: 6.25 µg/mL; Minimal inhibitory concentration(MIC), Cry. neoformans IFM. 40092 [10]: 1.56 µg/mL; Minimal inhibitory concentration(MIC), T. glabrata B. 16205 [11]: 50.0 µg/mL; Minimal inhibitory concentration(MIC), T. mentagrophytes A. 9129 [12]: 25.0 µg/mL; Minimal inhibitory concentration(MIC), T. mentagrophytes B. 32663 [13]: 25.0 µg/mL |
